Measured values from ChEMBL document CHEMBL1201862, “PubChem BioAssay data set” (2004).
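Values below derive from 48-hour exposures of cells grown in 96-well plates, with endpoints linearly interpolated between the two concentrations bracketing the appropriate inhibition level. GI50 = concentration required for 50% inhibition of growth.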 Active and inactive are the calls of the source. Cut-off read from the data, not from the text of the source: active = GI50 up to about 1.1 µM and inactive = higher.

Tests used:
Assay in all cases: NCI tumour cell line growth inhibition, 48 h
SK-MEL-5 = test system: SK-MEL-5
SK-OV-3 = test system: SK-OV-3
MDA-MB-435 = test system: MDA-MB-435
SF-539 = test system: SF-539
ACHN = test system: ACHN
COLO 205 = test system: COLO 205
HCT-116 = test system: HCT-116
IGROV-1 = test system: IGROV-1
HOP-92 = test system: HOP-92
MOLT-4 = test system: MOLT-4
Malme-3M = test system: Malme-3M
SN12C = test system: SN12C
CCRF-CEM = test system: CCRF-CEM
NCI/ADR-RES = test system: NCI/ADR-RES
SK-MEL-2 = test system: SK-MEL-2
K562 = test system: K562
UACC-257 = test system: UACC-257
RPMI-8226 = test system: RPMI-8226
NCI-H522 = test system: NCI-H522
LOX IMVI = test system: LOX IMVI

Measured: GI50

CCCCc1ccc(Nc2nc(Cl)c3ccn(C4CC(Oc5ccc(C)cc5)C(COc5ccc(C)cc5)O4)c3n2)cc1 (stereo not given)
inactive: SK-MEL-5 > 46.5 µM | SK-OV-3 > 46.5 µM | MDA-MB-435 > 46.5 µM | SF-539 > 46.5 µM | ACHN 25.2 µM | COLO 205 > 46.5 µM | HCT-116 > 46.5 µM | IGROV-1 22.9 µM | HOP-92 > 46.5 µM | MOLT-4 > 46.5 µM | Malme-3M 26.7 µM | SN12C > 46.5 µM | CCRF-CEM > 46.5 µM | NCI/ADR-RES > 46.5 µM | SK-MEL-2 > 46.5 µM | K562 > 46.5 µM | UACC-257 25.9 µM | RPMI-8226 > 46.5 µM | NCI-H522 22.4 µM | LOX IMVI > 46.5 µM

CCCCc1ccc(Nc2nc(Cl)c3ncn(C4CC(Oc5ccc(C)cc5)C(COc5ccc(C)cc5)O4)c3n2)cc1 (stereo not given)
inactive: SK-MEL-5 > 100 µM | SK-OV-3 > 100 µM | MDA-MB-435 > 100 µM | SF-539 > 100 µM | ACHN > 100 µM | COLO 205 > 100 µM | HCT-116 > 100 µM | IGROV-1 > 100 µM | HOP-92 17.2 µM | MOLT-4 > 100 µM | Malme-3M > 100 µM | SN12C > 100 µM | CCRF-CEM > 100 µM | NCI/ADR-RES > 100 µM | SK-MEL-2 > 100 µM | K562 > 100 µM | UACC-257 > 100 µM | RPMI-8226 > 100 µM | NCI-H522 > 100 µM | LOX IMVI > 100 µM

O=C1/C(=C/c2ccccc2)N=C2Sc3c([nH]cnc3=O)N12
inactive: SK-MEL-5 > 100 µM | SK-OV-3 > 100 µM | MDA-MB-435 60 µM | SF-539 > 100 µM | ACHN > 100 µM | COLO 205 > 100 µM | HCT-116 > 100 µM | IGROV-1 > 100 µM | HOP-92 > 100 µM | MOLT-4 44.3 µM | Malme-3M > 100 µM | SN12C > 100 µM | CCRF-CEM > 100 µM | NCI/ADR-RES > 100 µM | SK-MEL-2 > 100 µM | K562 28.2 µM | UACC-257 > 100 µM | RPMI-8226 > 100 µM | NCI-H522 > 100 µM | LOX IMVI > 100 µM

CC1(C)OC(CCC#N)CN1C(=O)OCc1ccccc1 (stereo not given)
inactive: SK-MEL-5 68.4 µM | SK-OV-3 > 100 µM | MDA-MB-435 > 100 µM | SF-539 > 100 µM | ACHN > 100 µM | COLO 205 > 100 µM | HCT-116 > 100 µM | IGROV-1 > 100 µM | HOP-92 > 100 µM | MOLT-4 > 100 µM | Malme-3M 49 µM | SN12C > 10 µM | CCRF-CEM > 100 µM | NCI/ADR-RES > 100 µM | SK-MEL-2 > 100 µM | K562 > 100 µM | UACC-257 > 100 µM | RPMI-8226 > 100 µM | NCI-H522 75.2 µM | LOX IMVI > 100 µM

COCOC1/C=C/CCCC#C[C@H](C)C(=O)CC1 (stereo not given in full)
inactive: SK-MEL-5 8.77 µM | SK-OV-3 15.8 µM | MDA-MB-435 7 µM | SF-539 16.2 µM | ACHN 14.2 µM | COLO 205 5.45 µM | HCT-116 2.33 µM | IGROV-1 9.27 µM | HOP-92 4.4 µM | MOLT-4 2.96 µM | Malme-3M 6.68 µM | SN12C 11.2 µM | CCRF-CEM 3.13 µM | NCI/ADR-RES 11.8 µM | SK-MEL-2 15 µM | K562 2.7 µM | UACC-257 6.05 µM | RPMI-8226 2.21 µM | NCI-H522 5.7 µM | LOX IMVI 3.05 µM
